Assay results published in patent US20100003246A1, “Novel heterocyclic compounds and uses therof” (priority 2008, published 2010).

Target: T1, b-Raf(V600E) (Homo sapiens, UniProt P15056, V600E)
T1 construct: made in house
Experiment: Raf/Mek Amplified Luminescence Proximity Homogeneous Assay (Alpha Screen), b-Raf(V600E)
Type: biochemical
Settings: mutant b-Raf(V600E), read-out: mut-b-RAF (IC50 in uM)
Procedure, shortened: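 IC50 derived by non-linear regression from AlphaScreen luminescence of phospho-MEK (anti-p-MEK antibody). Reaction: ~4 pM b-Raf(V600E), ~10 nM kinase-dead biotinylated Mek, 60 min compound pre-incubation, then 3 h with ATP at room temperature in pH 7.5 Tris/MgCl2/DTT buffer, quenched with EDTA.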

T1 sequence (P15056 whole entry V600E): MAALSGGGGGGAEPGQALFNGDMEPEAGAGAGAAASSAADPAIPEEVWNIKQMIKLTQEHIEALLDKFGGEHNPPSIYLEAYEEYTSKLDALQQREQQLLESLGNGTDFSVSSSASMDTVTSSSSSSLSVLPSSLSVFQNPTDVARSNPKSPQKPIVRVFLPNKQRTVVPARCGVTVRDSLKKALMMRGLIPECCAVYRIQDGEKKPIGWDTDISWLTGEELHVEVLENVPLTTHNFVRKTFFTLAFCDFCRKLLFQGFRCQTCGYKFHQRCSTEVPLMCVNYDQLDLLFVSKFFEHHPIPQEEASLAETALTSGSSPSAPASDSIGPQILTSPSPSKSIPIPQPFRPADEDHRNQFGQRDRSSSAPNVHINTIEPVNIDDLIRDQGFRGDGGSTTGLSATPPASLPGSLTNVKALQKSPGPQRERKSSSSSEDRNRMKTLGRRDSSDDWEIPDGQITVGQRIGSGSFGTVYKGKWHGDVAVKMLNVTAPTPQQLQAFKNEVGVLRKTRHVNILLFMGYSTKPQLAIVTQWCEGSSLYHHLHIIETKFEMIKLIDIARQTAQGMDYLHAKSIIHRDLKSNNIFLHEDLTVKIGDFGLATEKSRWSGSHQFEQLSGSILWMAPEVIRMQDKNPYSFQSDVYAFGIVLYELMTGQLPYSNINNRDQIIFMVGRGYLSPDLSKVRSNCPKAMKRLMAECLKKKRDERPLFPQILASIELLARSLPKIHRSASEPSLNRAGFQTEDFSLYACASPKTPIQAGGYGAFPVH

Structure (SMILES)	IC50 [µM]
COC(=O)N[C@@H](C)CNc1nccc(-c2nc(C(C)(C)C)[nH]c2-c2cnc(N)c(C(C)=O)c2)n1 [Compound 235, (S)-methyl-1-(4-(5-(5-acetyl-6-aminopyridin-3-yl)-2-tert-butyl-1H-imidazol-4-yl)pyrimidin-2-ylamino)propan-2-ylcarbamate]	0.0004
CCOC(=O)N[C@@H](C)CNc1nccc(-c2[nH]c(C(C)(C)C)nc2-c2cnc(N)c(OC)n2)n1 [Compound 236, (S)-ethyl 1-(4-(4-(5-amino-6-methoxypyrazin-2-yl)-2-tert-butyl-1H-imidazol-5-yl)pyrimidin-2-ylamino)propan-2-ylcarbamate]	0.0001
COc1nc(-c2nc(C(C)(C)C)[nH]c2-c2ccnc(NC[C@H](C)NC(=O)OC(C)C)n2)cnc1N [Compound 237, (S)-isopropyl 1-(4-(4-(5-amino-6-methoxypyrazin-2-yl)-2-tert-butyl-1H-imidazol-5-yl)pyrimidin-2-ylamino)propan-2-ylcarbamate]	0.0001
COc1nc(-c2nc(C(C)(C)C)[nH]c2-c2ccnc(NC[C@H](C)NC(=O)OCC(C)(C)C)n2)cnc1N [Compound 238, (S)-neopentyl 1-(4-(4-(5-amino-6-methoxypyrazin-2-yl)-2-tert-butyl-1H-imidazol-5-yl)pyrimidin-2-ylamino)propan-2-ylcarbamate]	0.0001
COc1nc(-c2nc(C(C)(C)C)[nH]c2-c2ccnc(NC[C@H](C)NC(=O)OCC(C)C)n2)cnc1N [Compound 239, (S)-isobutyl 1-(4-(4-(5-amino-6-methoxypyrazin-2-yl)-2-tert-butyl-1H-imidazol-5-yl)pyrimidin-2-ylamino)propan-2-ylcarbamate]	0.0001
COC(=O)N[C@@H](C)CNc1nccc(-c2nc(C(C)(C)C)[nH]c2-c2ccc3[nH]ccc3c2)n1 [Compound 240, (S)-methyl 1-(4-(2-tert-butyl-5-(1H-indol-5-yl)-1H-imidazol-4-yl)pyrimidin-2-ylamino)propan-2-ylcarbamate]	0.0138
COc1cc(-c2nc(C(C)(C)C)[nH]c2-c2ccnc(NC[C@H](C)NC(=O)[C@H](C)OC)n2)cnc1N [Compound 241, (S)-N-((S)-1-(4-(4-(6-amino-5-methoxypyridin-3-yl)-2-tert-butyl-1H-imidazol-5-yl)pyrimidin-2-ylamino)propan-2-yl)-2-methoxypropanamide]	0.0007
COc1nc(-c2nc(C(C)(C)C)[nH]c2-c2ccnc(NC[C@H](C)NC(=O)[C@H](C)OC)n2)cnc1N [Compound 242, (S)-N-((S)-1-(4-(4-(5-amino-6-methoxypyrazin-2-yl)-2-tert-butyl-1H-imidazol-5-yl)pyrimidin-2-ylamino)propan-2-yl)-2-methoxypropanamide]	0.0002
CCc1nc(-c2cnc(N)c(OC)c2)c(-c2ccnc(Nc3ccnc(OC)c3)n2)[nH]1 [Compound 243, 4-(4-(6-amino-5-methoxypyridin-3-yl)-2-ethyl-1H-imidazol-5-yl)-N-(2-methoxypyridin-4-yl)pyrimidin-2-amine]	0.0004
COc1cc(Nc2nccc(-c3[nH]c(C)nc3-c3cnc(N)c(OC)c3)n2)ccn1 [Compound 244, 4-(4-(6-amino-5-methoxypyridin-3-yl)-2-methyl-1H-imidazol-5-yl)-N-(2-methoxypyridin-4-yl)pyrimidin-2-amine]	0.003
COc1cc(Nc2nccc(-c3[nH]c(C)nc3-c3cnc(N)c(OC)n3)n2)ccn1 [Compound 245, 4-(4-(5-amino-6-methoxypyrazin-2-yl)-2-methyl-1H-imidazol-5-yl)-N-(2-methoxypyridin-4-yl)pyrimidin-2-amine]	0.011
COc1cc(-c2nc(C(C)(C)C)oc2-c2ccnc(NCC(C)C)c2)cnc1N [Compound 246, 4-(4-(6-amino-5-methoxypyridin-3-yl)-2-tert-butyloxazol-5-yl)-N-isobutylpyridin-2-amine]	0.0001
